PubChem BioAssay (NCI)
Several values for one entry are separate records, joined by “and”; a condition that tells them apart may be missing. Equal entries are not always repeated.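 48-hour exposure; five concentrations; linearly interpolated endpoints. Abbreviation: GI50, concentration required for 50% inhibition of growth. TGI is the concentration that stops growth completely.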

What was measured:
Assay in all cases: NCI tumour cell line growth inhibition, 48 h
[1] = test system: K-562 leukemia
[2] = test system: NCI-H522 lung
[3] = test system: RPMI-8226 leukemia
[4] = test system: SF-539 CNS
[5] = test system: OVCAR-5 ovarian
[6] = test system: SW-620 colon
[7] = test system: PC-3 prostate
[8] = test system: SK-MEL-28 melanoma
[9] = test system: KM12 colon
[10] = test system: HCC-2998 colon

Row | SMILES | GI50 [1] [µM] | TGI [1] | GI50 [2] [µM] | TGI [2] [µM] | GI50 [3] | TGI [3] | GI50 [4] | TGI [4] | GI50 [5] | TGI [5] | TGI [6] | GI50 [7] | TGI [7] | TGI [8] | GI50 [9] | TGI [9] | TGI [10] | GI50 [6] [µM] | GI50 [8] [µM] | GI50 [10] [µM]
1 | Nc1nc(Cl)c(N=Nc2ccc(Cl)cc2)c(NCC2(CO)CC(OCc3ccccc3)C2)n1 (centres undefined) | 2.76 | 10.3 µM and > 100 µM | 2.09 | 4.26 | 7.56 µM and > 44.4 µM and 14.5 µM | > 100 µM | 13.7 µM and > 100 µM and 12.4 µM | 43.7 µM and > 100 µM and 33.1 µM | 13.4 µM and > 100 µM and 12 µM | > 100 µM and 30.2 µM | > 100 µM and 20 µM | 42.8 µM and 10.9 µM | 77.5 µM and > 100 µM and 26.5 µM | > 100 µM and 33.4 µM | 20 µM and 41.3 µM and 7.74 µM | > 100 µM and 28 µM | 87.3 µM and > 100 µM and 16.9 µM |  |  | 
2 | COc1ccc(Cn2cnc3cc(C(=O)Nc4cccc5ccccc45)ccc32)c(OC)c1 | 0.0344 | > 100 µM | 0.039 |  | 0.0368 µM | 12.5 µM | 0.0316 µM | 0.147 µM | 0.18 µM | > 100 µM | > 100 µM | 0.051 µM | > 100 µM | > 100 µM | 0.0391 µM | 8.06 µM | 14.6 µM | 0.0334 | 1.63 | 0.197
3 | C/C1=C\CC[C@@]2(C)O[C@@H]2C[C@@H]2[C@H](C/C(C)=C/CC1)OC(=O)C21CCN=N1 (some centres undefined) | 71.2 | 42.7 µM and > 100 µM |  | 75 | > 100 µM | 75 µM and > 100 µM | > 100 µM | > 100 µM | > 100 µM | > 100 µM | > 100 µM | > 100 µM | > 100 µM | > 100 µM | > 100 µM | > 100 µM | > 75 µM | > 100 | > 100 | 
4 | CC(=O)c1c(O)ccc2c(C)c(C(=O)O)oc12 | > 100 | > 100 µM | > 100 | > 100 | > 100 µM | > 100 µM | > 100 µM | > 100 µM | > 100 µM | > 100 µM | > 100 µM | > 100 µM | > 100 µM | > 100 µM | > 100 µM | > 100 µM | > 100 µM | > 100 | > 100 | 55.8
5 | O=C1/C(=C/c2ccc(Cl)cc2)CN(Cc2cn(CCNc3ccnc4cc(Cl)ccc34)nn2)C/C1=C\c1ccc(Cl)cc1 | 0.302 | 1.08 µM | 0.52 | 1.19 | 0.272 µM | 1.05 µM | 0.264 µM | 0.742 µM | 0.612 µM | 1.62 µM | 0.83 µM | 0.26 µM | 0.776 µM | 2.81 µM | 0.22 µM | 0.496 µM | 0.563 µM | 0.275 | 1.4 | 0.246
6 | Oc1ccccc1Nc1nc2ccccc2c2occc12 | > 100 | > 100 µM | 8.36 | 24.2 | 9.11 µM | 57.8 µM | 10.4 µM | 22.1 µM | 12.6 µM | 25.1 µM | 26 µM | 10.9 µM | 22.8 µM | 31.8 µM | 12.5 µM | 50.7 µM | 10.3 µM | 13.2 | 15.1 | 3.11
7 | N#CCC12CC=CCC1=C(O)C(=O)c1ccc(O)cc12 (centres undefined) |  | > 100 µM |  | > 100 |  | > 100 µM |  | > 100 µM |  | > 100 µM | > 100 µM |  | > 100 µM | > 100 µM |  | > 100 µM | > 100 µM |  |  | 
8 | Cc1ccc(NSc2ccccc2[N+](=O)[O-])cc1 | 0.125 | 22.9 µM | 0.435 | 13.4 | 0.925 µM | 52.3 µM | 0.847 µM | 5.11 µM | 3.42 µM | 20.9 µM | 16.2 µM | 1.29 µM | 16.6 µM | 26.4 µM | 0.141 µM | 12.5 µM | 10.6 µM | 0.137 | 7.71 | 1.82
9 | O=c1[nH]ccc2nc(-c3ccc(CN4CCC(c5nc(-c6ccccn6)n[nH]5)CC4)cc3)c(-c3ccccc3)cc12 | 18.9 | > 100 µM | 22.2 | > 64.2 | 4.85 µM | > 50.2 µM | 4.81 µM | 20.8 µM | 37.8 µM | > 100 µM | > 100 µM | 0.153 µM | > 100 µM | > 66.1 µM | 14.7 µM | > 100 µM | > 100 µM | 42.3 | 16.8 | 22.2
10 | COc1cc(Nc2ncc3c(C)nc(-c4cccc(Oc5ccccc5)c4)n3n2)cc(OC)c1OC | 10 | > 25 µM | 4.94 | > 17.9 | 6.08 µM | > 25 µM | 7.07 µM | > 25 µM | 11.6 µM | > 25 µM | > 25 µM | 5.1 µM | 24.6 µM | > 25 µM | 5.95 µM | > 25 µM | > 25 µM | 9.61 | 7.63 | 5.15
11 | O=C1Nc2ccccc2/C1=C/c1ccccc1 |  | > 100 µM |  | 33.9 |  | 77.7 µM |  | 42.6 µM |  | 34.5 µM | > 100 µM |  | 31.1 µM | 44.4 µM |  | 33.2 µM | 30.1 µM |  |  | 
12 | CC(C)=CCc1ccc(O)c(=O)cc1C(C)C | 0.466 | > 100 µM | 1.22 | 69.9 | 0.673 µM | > 91.3 µM | 0.764 µM | > 41.1 µM | 3.39 µM | > 100 µM | > 100 µM | 1.13 µM | > 100 µM | > 100 µM | 0.641 µM | > 100 µM | 29.8 µM | 0.566 | 0.917 | 0.583
13 | O=C1CSC(=S)N1Cc1cccnc1 | 3.75 | > 100 µM | 2.22 | 5.83 | 3.35 µM | 17.1 µM | 6.33 µM | 23.4 µM | 13.2 µM | 26.8 µM | 16.8 µM | 16.2 µM | > 100 µM | 27.3 µM | 2.22 µM | 5.21 µM | 36.9 µM | 4.13 | 11.4 | 19.8
